These molecules were tested on NCI-H226 (assay: 72H TEAD Proliferation Assay (Cell Titer Glo 2.0)). Conditions: CTG 2.0, cell line not given (NCI-H226 responsive, NCI-H28 non-responsive).
Format: cell-based
Procedure, shortened: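 NF2-deficient NCI-H226 mesothelioma cells, TEAD-dependent, treated 72 h; NF2-wild-type NCI-H28 serves as the TEAD-independent counter-screen for off-target cytotoxicity. Viable cells quantified by CellTiter-Glo 2.0 luminescence; background and time-zero signal subtracted, GI50 from nonlinear dose-response fit.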
CC(C)(C)c1ccc(-c2nc3cc(S(C)(=N)=O)ccc3n3cccc23)cc1 (single isomer, unassigned) [I-209, (4-(4-(tert-Butyl)phenyl)pyrrolo[1,2-a]quinoxalin-7-yl)(imino)(methyl)-16-sulfanone] gave a GI50 of 5000 to 10000 nM.

Same assay, conditions: Homo sapiens, NCI-H226, 72 h, CTG 2.0, cell line not given (NCI-H226 responsive, NCI-H28 non-responsive)
CC(C)(C)c1ccc(-c2nc3cc(NC(=O)CN)ccc3n3cccc23)cc1 [I-206, 2-Amino-N-(4-(4-(tert-butyl)phenyl)pyrrolo[1,2-a]quinoxalin-7-yl)acetamide] showed a GI50 of 1000 to 5000 nM. In the case of O=C(O)c1ccc2c(c1)nc(-c1ccc(F)cc1F)c1cccn12 [I-44, 4-(2,4-Difluorophenyl)pyrrolo[1,2-a]quinoxaline-7-carboxylic acid], the GI50 is reported as > 10000 nM. CC(C)(C)c1ccc(-c2nc3cc(NC(=O)c4ccccn4)ccc3n3cccc23)cc1 [I-207, N-(4-(4-(tert-butyl)phenyl)pyrrolo[1,2-a]quinoxalin-7-yl)picolinamide] gave a GI50 of 5000 to 10000 nM. Cn1cnc(-c2cc(-c3ccc(C(F)(F)F)cc3)nc3cc(C(=O)O)ccc23)c1 [I-388, 4-(1-methyl-1H-imidazol-4-yl)-2-(4-(trifluoromethyl)phenyl)quinoline-7-carboxylic acid] showed a GI50 of 1000 to 5000 nM. For CC(C)(C)c1ccc(-c2nc3cc(-c4nnn[nH]4)ccc3n3ccnc23)cc1 [I-76, 4-(4-(tert-Butyl)phenyl)-7-(1H-tetrazol-5-yl)imidazo[1,2-a]quinoxaline], the GI50 was > 10000 nM. For C=CC(=O)NCc1cn2ccnc2c(Oc2ccc(C(F)(F)F)cc2)n1 [I-174, N-((8-(4-(trifluoromethyl)phenoxy)imidazo[1,2-a]pyrazin-6-yl)methyl)acrylamide], the GI50 was ≤ 1000 nM. C[C@@H](CO)NC(=O)c1ccc2c(OCC3CC3)cc(-c3ccc(C(F)(F)F)cc3)nc2c1 [I-374, (S)-4-(cyclopropylmethoxy)-N-(1-hydroxypropan-2-yl)-2-(4-(trifluoromethyl)phenyl)quinoline-7-carboxamide] showed a GI50 of 1000 to 5000 nM. Work on CC(C)(C)c1ccc(-c2nc3cc(C(=O)O)ccc3n3ccnc23)c(F)c1 [I-59, 4-(4-(tert-Butyl)-2-fluorophenyl)imidazo[1,2-a]quinoxaline-7-carboxylic acid] yielded a GI50 of 1000 to 5000 nM. In the case of O=C(O)c1ccc2c(c1)nc(C1CCC1)c1cccn12 [I-113, 4-Cyclobutylpyrrolo[1,2-a]quinoxaline-7-carboxylic acid], the GI50 is reported as > 10000 nM. CC(C)(C)c1ccc(-c2nc3cc(-c4nnc(N)o4)ccc3n3cccc23)cc1 [I-189, 5-(4-(4-(tert-butyl)phenyl)pyrrolo[1,2-a]quinoxalin-7-yl)-1,3,4-oxadiazol-2-amine] gave a GI50 of 5000 to 10000 nM. In the case of C=CC(=O)NCc1cn2cc(C)nc2c(-c2ccc(C(F)(F)F)cc2)n1 [I-241, N-((2-methyl-8-(4-(trifluoromethyl)phenyl)imidazo[1,2-a]pyrazin-6-yl)methyl)acrylamide], the GI50 is reported as ≤ 1000 nM. O=C(O)c1ccc2c(c1)nc(N1CCC3(CCOC3)CC1)c1cccn12 [I-35, 4-(2-Oxa-8-azaspiro[4.5]decan-8-yl)pyrrolo[1,2-a]quinoxaline-7-carboxylic acid] was tested, and the GI50 was 1000 to 5000 nM. Work on O=C(O)c1ccc2c(c1)nc(-c1ccc(C3(C(F)(F)F)CC3)cc1)c1cccn12 [I-196, 4-(4-(1-(trifluoromethyl)cyclopropyl)phenyl)pyrrolo[1,2-a]quinoxaline-7-carboxylic acid] yielded a GI50 of 1000 to 5000 nM. Cc1cc(C(=O)O)cc2nc(-c3ccc(C(C)(C)C)cc3)c3cccn3c12 [I-321, 4-(4-(Tert-butyl)phenyl)-9-methylpyrrolo[1,2-a]quinoxaline-7-carboxylic acid] was tested, and the GI50 was 1000 to 5000 nM. With COc1cc2c(-c3ccc(C(C)(C)C)cc3)nc3cc(C(=O)O)ccc3n2c1 [I-180, 4-(4-(tert-butyl)phenyl)-2-methoxypyrrolo[1,2-a]quinoxaline-7-carboxylic acid] the GI50 was ≤ 1000 nM. CC(=O)c1cc(-c2ccc(C(F)(F)F)cc2)nc2cc(C(=O)O)ccc12 [I-396, 4-acetyl-2-(4-(trifluoromethyl)phenyl)quinoline-7-carboxylic acid] showed a GI50 of 1000 to 5000 nM. With Cc1cc2c(-c3ccc(C(F)(F)F)cc3F)nc3cc(C(=O)O)ccc3n2c1 [I-84, 4-(2-Fluoro-4-(trifluoromethyl)phenyl)-2-methylpyrrolo[1,2-a]quinoxaline-7-carboxylic acid] the GI50 was ≤ 1000 nM. With C=C(F)C(=O)NCc1cc2ccccc2c(-c2ccc(C(F)(F)F)cc2)n1 [I-168, 2-Fluoro-N-((1-(4-(trifluoromethyl)phenyl)isoquinolin-3-yl)methyl)acrylamide] the GI50 was ≤ 1000 nM. With Cc1cc(-c2ccc(C(F)(F)F)cc2F)nc2cc(C(=O)O)ccc12 [I-87, 2-(2-Fluoro-4-(trifluoromethyl)phenyl)-4-methylquinoline-7-carboxylic acid] the GI50 was ≤ 1000 nM. Molecule C=CC(=O)Nc1ncc2c(ccn2-c2ccc(C(C)(C)C)cc2)n1 [I-100, N-(5-(4-(tert-butyl)phenyl)-5H-pyrrolo[3,2-d]pyrimidin-2-yl)acrylamide] has a GI50 of 5000 to 10000 nM. For COC[C@H](C)NC(=O)c1cnc2c(N3CCC(CC(F)(F)F)CC3)cc(OC)cc2c1 [I-253, (S)-6-methoxy-N-(1-methoxypropan-2-yl)-8-(4-(2,2,2-trifluoroethyl)piperidin-1-yl)quinoline-3-carboxamide], the GI50 was 1000 to 5000 nM. O=C(O)c1ccc2c(c1)nc(N1CCC3(CC1)CC3)c1nccn12 [I-56, 4-(6-Azaspiro[2.5]octan-6-yl)imidazo[1,2-a]quinoxaline-7-carboxylic acid] was tested, and the GI50 was > 10000 nM. For C=CC(=O)NCc1cn2c(F)ccc2c(-c2ccc(C(C)(C)C)cc2)n1 [I-409, N-((1-(4-(tert-butyl)phenyl)-6-fluoropyrrolo[1,2-a]pyrazin-3-yl)methyl)acrylamide], the GI50 was ≤ 1000 nM. With C[C@H](CO)NC(=O)c1ccc2c(OC(F)F)cc(-c3ccc(C(F)(F)F)cc3)nc2c1 [I-330, (R)-4-(difluoromethoxy)-N-(1-hydroxypropan-2-yl)-2-(4-(trifluoromethyl)phenyl)quinoline-7-carboxamide] the GI50 was ≤ 1000 nM. For COc1cc(N2CCC(C(F)(F)F)CC2)nc2cc(C(=O)N[C@H](C)CO)ccc12 [I-328, (R)—N-(1-hydroxypropan-2-yl)-4-methoxy-2-(4-(trifluoromethyl)piperidin-1-yl)quinoline-7-carboxamide], the GI50 was 1000 to 5000 nM. O=C(O)c1ccc2c(c1)nc(N1CCN(C3CC3)CC1)c1cccn12 [I-40, 4-(4-Cyclopropylpiperazin-1-yl) pyrrolo[1,2-a]quinoxaline-7-carboxylic acid] showed a GI50 of 1000 to 5000 nM. For C=CC(=O)Nc1ccc2c(OC)cc(-c3ccc(C(C)(C)C)cc3)nc2c1 [I-384, N-(2-(4-(Tert-butyl)phenyl)-4-methoxyquinolin-7-yl)acrylamide], the GI50 was ≤ 1000 nM. CN(C#N)Cc1cn2ccnc2c(-c2ccc(C(F)(F)F)cc2)n1 [I-239, N-methyl-N-((8-(4-(trifluoromethyl)phenyl)imidazo[1,2-a]pyrazin-6-yl)methyl)cyanamide] showed a GI50 of 1000 to 5000 nM. For Cc1nc(-c2ccc(C(F)(F)F)cc2)nc2cc(C(=O)N[C@H](C)CO)ccc12 [I-436, (R)—N-(1-hydroxypropan-2-yl)-4-methyl-2-(4-(trifluoromethyl)phenyl)quinazoline-7-carboxamide], the GI50 was ≤ 1000 nM. CC(C)(C)c1ccc(CCn2ccc3cc(C(=O)O)ccc32)cc1 [Compound I-161] was tested, and the GI50 was > 10000 nM. In the case of Cc1cc2c(-c3ccc(C(F)(F)F)cc3)nc3cc(C(=O)O)ccc3n2c1 [I-404, 2-Methyl-4-(4-(trifluoromethyl)phenyl)pyrrolo[1,2-a]quinoxaline-7-carboxylic acid], the GI50 is reported as ≤ 1000 nM. For CNS(=O)(=O)c1ccc2c(c1)nc(-c1ccc(C(C)(C)C)cc1)c1cccn12 [I-310, 4-(4-(tert-butyl)phenyl)-N-methylpyrrolo[1,2-a]quinoxaline-7-sulfonamide], the GI50 was 1000 to 5000 nM. In the case of O=C(O)c1ccc2c(C3CCOCC3)cc(-c3ccc(C(F)(F)F)cc3)nc2c1 [I-390, 4-(tetrahydro-2H-pyran-4-yl)-2-(4-(trifluoromethyl)phenyl)quinoline-7-carboxylic acid], the GI50 is reported as 5000 to 10000 nM. O=C(O)c1ccc2c(c1)nc(-c1ccc(C(F)(F)F)cn1)c1cccn12 [I-132, 4-(5-(Trifluoromethyl)pyridin-2-yl)pyrrolo[1,2-a]quinoxaline-7-carboxylic acid] was tested, and the GI50 was ≤ 1000 nM. For COc1nc(-c2ccc(C(F)(F)F)cc2)nc2cc(C(=O)O)ccc12 [I-433, 4-methoxy-2-(4-(trifluoromethyl)phenyl)quinazoline-7-carboxylic acid], the GI50 was ≤ 1000 nM. With COc1cccc([C@H](C)NC(=O)c2ccc3c(OC)cc(-c4ccc(C(F)(F)F)cc4)nc3c2)c1 [I-348, (S)-4-methoxy-N-(1-(3-methoxyphenyl)ethyl)-2-(4-(trifluoromethyl)phenyl)quinoline-7-carboxamide] the GI50 was ≤ 1000 nM. With C=CC(=O)Nc1ccc2c(C(F)(F)F)cc(-c3ccc(C(C)(C)C)cc3)nc2c1 [I-112, N-(2-(4-(tert-Butyl)phenyl)-4-(trifluoromethyl)quinolin-7-yl)acrylamide] the GI50 was 1000 to 5000 nM. For C=CC(=O)NCc1cn2cc(C(F)(F)F)nc2c(-c2ccc(C(F)(F)F)cc2)n1 [I-247, N-((2-(trifluoromethyl)-8-(4-(trifluoromethyl)phenyl)imidazo[1,2-a]pyrazin-6-yl)methyl)acrylamide], the GI50 was ≤ 1000 nM. C=CC(=O)NCc1nc(-c2ccc(C(F)(F)F)cc2F)c2ccccc2n1 [I-303, N-((4-(2-fluoro-4-(trifluoromethyl)phenyl)quinazolin-2-yl)methyl)acrylamide] was tested, and the GI50 was ≤ 1000 nM. With O=C(O)c1ccc2c(c1)nc(-c1ccc(C3(C(F)(F)F)CC3)cc1)c1nccn12 [I-67, 4-(4-(1-(Trifluoromethyl)cyclopropyl)phenyl)imidazo[1,2-a]quinoxaline-7-carboxylic acid] the GI50 was > 10000 nM. CC(C)(C)c1ccc(-c2nc3cc(C(=O)O)ccc3n3nccc23)cc1 [I-117, 4-(4-(tert-Butyl)phenyl)pyrazolo[1,5-a]quinoxaline-7-carboxylic acid] showed a GI50 of 1000 to 5000 nM. For C=CC(=O)NCc1nc(-c2ccc(C(F)(F)F)cc2)c2c(ccn2C)n1 [I-451, N-((5-methyl-4-(4-(trifluoromethyl)phenyl)-5H-pyrrolo[3,2-d]pyrimidin-2-yl)methyl)acrylamide], the GI50 was ≤ 1000 nM.
